# Reference: patent US20250221966A1, “RXFP1 AGONISTS” (BRISTOL-MYERS SQUIBB COMPANY, priority 2021, published 2025)
# Molecular target: T1, human RXFP1 (Homo sapiens, UniProt Q9HBX9)
# T1 construct: expressed in transfected cells
# T1 sequence (Q9HBX9 1-757): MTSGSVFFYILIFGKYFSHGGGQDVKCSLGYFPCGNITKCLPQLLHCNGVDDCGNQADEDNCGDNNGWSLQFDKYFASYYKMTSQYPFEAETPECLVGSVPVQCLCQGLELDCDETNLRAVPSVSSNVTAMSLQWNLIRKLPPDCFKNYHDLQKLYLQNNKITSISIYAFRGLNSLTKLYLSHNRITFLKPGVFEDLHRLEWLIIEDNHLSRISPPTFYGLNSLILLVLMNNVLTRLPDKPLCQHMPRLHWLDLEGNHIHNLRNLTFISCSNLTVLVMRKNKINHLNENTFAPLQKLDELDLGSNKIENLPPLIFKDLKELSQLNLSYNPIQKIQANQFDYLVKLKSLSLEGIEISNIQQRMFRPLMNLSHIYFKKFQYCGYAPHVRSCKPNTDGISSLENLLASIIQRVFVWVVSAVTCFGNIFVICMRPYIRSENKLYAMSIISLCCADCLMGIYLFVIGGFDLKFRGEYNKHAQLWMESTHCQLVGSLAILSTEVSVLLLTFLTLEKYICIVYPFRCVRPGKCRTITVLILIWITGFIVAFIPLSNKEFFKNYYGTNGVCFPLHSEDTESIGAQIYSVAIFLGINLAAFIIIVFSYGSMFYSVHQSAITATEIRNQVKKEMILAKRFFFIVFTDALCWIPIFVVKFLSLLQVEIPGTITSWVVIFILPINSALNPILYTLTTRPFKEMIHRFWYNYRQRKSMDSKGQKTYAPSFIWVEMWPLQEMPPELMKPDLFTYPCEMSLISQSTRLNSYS
# Assay: RXFP1 cAMP assay (hRXFP1 HEK293 cAMP assay, HTRF)
# Assay type: cell-based
# Settings: HEK293 cells stably expressing human RXFP1, 30 min at room temperature, read-out: cAMP hRXFP1 HEK293 Assay EC50
# Procedure, shortened: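 In a stable human RXFP1 HEK293 line, compounds acted for 30 min at RT in buffer with 0.5 mM IBMX. HTRF then quantified cellular cAMP.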
row,Structure (SMILES),EC50
1,"COc1cc(C2CC2)c(C2=NOC3COCC23)cc1C(=O)N[C@H]1C(C(=O)Nc2ccc(F)c(C(F)(F)F)c2)[C@H]2CC[C@@H]1/C2=C\C1CC1 (single isomer, unassigned) [Example 626]",171 nM
2,CCOC(=O)Cn1cc(-c2ccc(OC)c(C(=O)N[C@@H]3C4CCC(/C4=C/c4ccccc4)[C@@H]3C(=O)Nc3ccc(F)c(C(F)(F)F)c3)c2)cn1 (stereo partly drawn) [compound 339],67 nM
3,"COc1ccc(-c2cc(C(N[S+]([O-])C(C)(C)C)C(F)(F)F)ccc2F)cc1C(=O)N[C@H]1[C@@H](C(=O)Nc2ccc(F)c(C(F)(F)F)c2)[C@H]2CC[C@@H]1/C2=C\C1CC1 (stereo partly drawn) [Example 256, (1R,2S,3R,4R,Z)-3-(5′-(1-((tert-butylsulfinyl)amino)-2,2,2-trifluoroethyl)-2′-fluoro-4-methoxy-[1,1′-biphenyl]-3-carboxamido)-7-(cyclopropylmethylene)-N-(4-fluoro-3-(trifluoromethyl)phenyl)bicyclo[2.2.1]heptane-2-carboxamide]",14 nM
4,"COc1ccc(C2=NOC3CS(=O)(=O)CC23)cc1C(=O)N[C@@H]1C2CCC(/C2=C/C2CC2)[C@@H]1C(=O)Nc1ccc(F)c(C(F)(F)F)c1 (mixture of isomers) [Example 442, (1R,2S,3R,4R,Z)-7-(cyclopropylmethylene)-3-(5-(5,5-dioxido-3a,4,6,6a-tetrahydrothieno[3,4-d]isoxazol-3-yl)-2-methoxybenzamido)-N-(4-fluoro-3-(trifluoromethyl)phenyl)bicyclo[2.2.1]heptane-2-carboxamide]",25 nM
5,COc1ccc(C2=NOC3(C2)CC(CO)C3)cc1C(=O)N[C@H]1[C@@H](C(=O)Nc2ccc(F)c(C(F)(F)F)c2)[C@H]2CC[C@@H]1/C2=C\C1CC1 (stereo partly drawn) [Example 511],15.3 nM
6,"COc1ccc(C2=NOC3(CO)CCCC23)cc1C(=O)N[C@H]1[C@@H](C(=O)Nc2ccc(F)c(C(F)(F)F)c2)[C@H]2CC[C@@H]1/C2=C\C1CC1 (single isomer, unassigned) [compound 616]",141 nM
7,COc1ccc(C2=NOC3CC(CO)CC23)cc1C(=O)N[C@H]1[C@@H](C(=O)Nc2ccc(F)c(C(F)(F)F)c2)[C@H]2CC[C@@H]1/C2=C\c1ccncn1 (stereo partly drawn) [compound 809],4.6 nM
8,"COc1ccc(C2=NOC3CS(=O)(=O)CC23)cc1C(=O)N[C@@H]1C2CCC(/C2=C/C2CC2)[C@@H]1C(=O)Nc1ccc(F)c(C(F)(F)F)c1 (single isomer, unassigned) [compound 444]",410 nM
9,COc1ccc(-c2cc(C(=O)O)ccc2F)cc1C(=O)N[C@@H]1C2CCC(/C2=C/C2CC2)[C@@H]1C(=O)NC1CC2(CCC2)C1 (stereo partly drawn) [compound 301],850 nM
10,COc1ccc(C2=NOC3COCC23)cc1C(=O)N[C@H]1[C@@H](C(=O)NCc2cc(C)ccc2C(F)(F)F)[C@H]2CC[C@@H]1/C2=C\C1CC1 (stereo partly drawn) [compound 659],347 nM
11,COc1ccc(-c2cc(C(=O)O)ccc2F)cc1C(=O)N[C@@H]1C2CCC(/C2=C/c2cncnc2)[C@@H]1C(=O)Nc1ccc(F)c(C(F)(F)F)c1 (stereo partly drawn) [compound 129],60 nM
12,COc1ccc(-c2cc(C(=O)O)ccc2F)cc1C(=O)N[C@@H]1C2CCC(/C2=C/C2CC2)[C@@H]1C(=O)NCCc1cccc(C(F)(F)F)c1 (stereo partly drawn) [compound 302],889 nM
13,COCCOc1ccc(-c2cc(C(=O)O)ccc2F)cc1C(=O)N[C@@H]1C2CCC(/C2=C/C2CC2)[C@@H]1C(=O)Nc1ccc(F)c(C(F)(F)F)c1 (stereo partly drawn) [compound 200],37 nM
14,COc1ccc(-c2cccc(CC(F)(F)F)c2)cc1C(=O)N[C@@H]1C2CCC(/C2=C/C2CC2)[C@@H]1C(=O)Nc1ccc(F)c(C(F)(F)F)c1 (stereo partly drawn) [compound 287],7 nM
15,COc1ccc(C2=NOC3COCC23)cc1C(=O)N[C@H]1[C@@H](C(=O)NCc2cccc(Cl)c2Cl)[C@H]2CC[C@@H]1/C2=C\C1CC1 (stereo partly drawn) [compound 582],74.9 nM
16,COc1ccc(-c2cc([C@H](OC(=O)NC3CCC3)C(F)(F)F)ccc2F)cc1C(=O)N[C@H]1[C@@H](C(=O)N[C@H](C)C2(C)CC2)[C@H]2CC[C@@H]1/C2=C\CCC(F)(F)F [compound 966],6.9 nM
17,COc1ccc(-c2cc(C(OC(=O)Nc3ccc(Cl)cc3)C(F)(F)F)ccc2F)cc1C(=O)N[C@@H]1C2CCC(/C2=C/C2CC2)[C@@H]1C(=O)Nc1ccc(F)c(C(F)(F)F)c1 (stereo partly drawn) [compound 227],3 nM
18,COc1ccc(-c2cc(C(=O)O)ccc2F)cc1C(=O)N[C@@H]1C2CCC(/C2=C/C2CC2)[C@@H]1C(=O)NCc1ccccc1 (stereo partly drawn) [compound 260],2970 nM

row,Structure (SMILES),EC50
1,COc1ccc(C2=NOC3CC(CO)CC23)cc1C(=O)NC1C2CCC(C2=CC2CC2)C1C(=O)NCC(C)(C)C (stereo not drawn) [Example 453],1.9 nM
2,COc1ccc(-c2cc([C@H](OC(=O)NC3CCC3)C(F)(F)F)ccc2F)cc1C(=O)N[C@@H]1C2CCC(/C2=C/C(C)C)[C@@H]1C(=O)Nc1ccc(F)c(C(F)(F)F)c1 (stereo partly drawn) [compound 925],5.2 nM
3,"COc1ccc(C2=CCCN(CC(=O)O)C2)cc1C(=O)N[C@H]1[C@@H](C(=O)Nc2ccc(F)c(C(F)(F)F)c2)[C@H]2CC[C@@H]1/C2=C\C1CC1 [Example 259, 2-(5-(3-(((1R,2R,3S,4R,Z)-7-(cyclopropylmethylene)-3-((4-fluoro-3-(trifluoromethyl)phenyl)carbamoyl)bicyclo[2.2.1]heptan-2-yl)carbamoyl)-4-methoxyphenyl)-3,6-dihydropyridin-1(2H)-yl)acetic acid]",815 nM
4,COc1cc(F)c(F)cc1C(=O)N[C@@H]1C2CCC(/C2=C/c2ccsc2)[C@@H]1C(=O)Nc1ccc(F)c(C(F)(F)F)c1 (stereo partly drawn) [compound 36],19 nM
5,COc1ccc(-c2ccc3c(c2)nnn3CC(=O)O)cc1C(=O)N[C@@H]1C2CCC(/C2=C/C(F)(F)F)[C@@H]1C(=O)Nc1ccc(F)c(C(F)(F)F)c1 (stereo partly drawn) [compound 312],9 nM
6,COc1ccc(-c2ccc(C(CC(=O)O)C(F)(F)F)cc2F)cc1C(=O)N[C@H]1[C@@H](C(=O)Nc2ccc(F)c(C(F)(F)F)c2)[C@H]2CC[C@@H]1/C2=C\C1CC1 (stereo partly drawn) [compound 883],2.5 nM
7,"O=C(NC1CCC1)OC(c1ccc(F)c(-c2ccc(OCCO)c(C(=O)N[C@H]3[C@@H](C(=O)Nc4ccc(F)c(C(F)(F)F)c4)[C@H]4CC[C@@H]3/C4=C\C3CC3)c2)c1)C(F)(F)F (stereo partly drawn) [Example 253, 1-(3′-(((1R,2R,3S,4R,Z)-7-(cyclopropylmethylene)-3-((4-fluoro-3-(trifluoromethyl)phenyl)carbamoyl)bicyclo[2.2.1]heptan-2-yl)carbamoyl)-6-fluoro-4′-(2-hydroxyethoxy)-[1,1′-biphenyl]-3-yl)-2,2,2-trifluoroethyl cyclobutylcarbamate]",17 nM
8,CCO/N=C1\C2CCC1[C@H](C(=O)Nc1ccc(F)c(C(F)(F)F)c1)[C@@H]2NC(=O)c1cc(-c2cc(C(=O)O)ccc2F)ccc1OC (stereo partly drawn) [Example 130],440 nM
9,COc1ccc(C2=NO[C@@H]3C[C@H](CO)CN23)cc1C(=O)N[C@H]1[C@@H](C(=O)N[C@H](C)C2(C)CC2)[C@H]2CC[C@@H]1/C2=C\C1CC1 [compound 768],3 nM
10,"COCCOc1ccc(C2=NOC3COCC23)cc1C(=O)N[C@H]1[C@@H](C(=O)Nc2ccc(F)c(C(F)(F)F)c2)[C@H]2CC[C@@H]1/C2=C\C1CC1 (single isomer, unassigned) [Example 452]",1.8 nM
11,COc1ccc(C2=NO[C@H]3COC[C@@H]23)cc1C(=O)N[C@H]1[C@@H](C(=O)Nc2ccc(F)c(C(F)(F)F)c2)[C@H]2CC[C@@H]1/C2=C\C(C)C [compound 827],3.1 nM
12,COc1ccc(C2=NOC(CC(=O)O)C2)cc1C(=O)N[C@@H]1C2CCC(/C2=C/C2CCC2)[C@@H]1C(=O)Nc1ccc(F)c(C(F)(F)F)c1 (stereo partly drawn) [compound 394],49 nM
13,COc1ccc(-c2cc(C(=O)O)ccc2F)cc1C(=O)N[C@@H]1C2CCC(/C2=C/C2CC2)[C@@H]1C(=O)Nc1ccc(F)c(F)c1F (stereo partly drawn) [compound 305],1380 nM
14,COc1ccc(-c2cccc(C(F)(F)F)n2)cc1C(=O)N[C@@H]1C2CCC(/C2=C/C2CC2)[C@@H]1C(=O)Nc1ccc(F)c(C(F)(F)F)c1 (stereo partly drawn) [compound 283],69 nM
15,COc1ccc(-c2ccc(C(CC(=O)O)C(F)(F)F)cc2F)cc1C(=O)N[C@H]1[C@@H](C(=O)Nc2ccc(F)c(C(F)(F)F)c2)[C@H]2CC[C@@H]1/C2=C\C1CCCC1 (stereo partly drawn) [compound 891],3.7 nM
16,COc1ccc(-c2cc(C(NC(C)=O)C(=O)O)ccc2F)cc1C(=O)N[C@@H]1C2CCC(/C2=C/C2CC2)[C@@H]1C(=O)Nc1ccc(F)c(C(F)(F)F)c1 (stereo partly drawn) [compound 184],11 nM
17,COc1c(F)cc(C2=NOC(C)(CO)C2)cc1C(=O)N[C@H]1[C@@H](C(=O)N[C@H](C)C2(C)CC2)[C@H]2CC[C@@H]1/C2=C\C1CC1 (stereo partly drawn) [compound 744],2.5 nM
18,"COc1ccc(C2=NOC(C(C)(O)C(F)(F)F)C2)cc1C(=O)N[C@H]1[C@@H](C(=O)Nc2ccc(F)c(C(F)(F)F)c2)[C@H]2CC[C@@H]1/C2=C\C1CC1 (single isomer, unassigned) [compound 682]",612 nM
